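Following 48 hours of exposure in 96-well plates, responses at five concentrations were used to interpolate endpoints linearly. GI50 marks 50% less growth.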 Activity calls are given as the source filed them. Rule as the data show it: active = GI50 up to about 1.1 µM and inactive = higher.
Legend:
Test in all cases: DTP human tumour cell line panel, 48 h
[1] = tested on: 786-0
[2] = tested on: A498
[3] = tested on: A549
[4] = tested on: ACHN
[5] = tested on: BT-549
[6] = tested on: COLO 205
[7] = tested on: DU-145
[8] = tested on: EKVX
[9] = tested on: HCT-116
[10] = tested on: HCT-15
[11] = tested on: HOP-62
[12] = tested on: LOX IMVI
[13] = tested on: M14
[14] = tested on: MCF7
[15] = tested on: NCI-H226
[16] = tested on: NCI-H23
[17] = tested on: NCI-H460
[18] = tested on: NCI-H522
[19] = tested on: NCI/ADR-RES
[20] = tested on: OVCAR-5
[21] = tested on: OVCAR-8
[22] = tested on: PC-3
[23] = tested on: RXF 393
[24] = tested on: SF-295
[25] = tested on: SK-MEL-5
[26] = tested on: SK-OV-3
[27] = tested on: SNB-19
[28] = tested on: SNB-75
[29] = tested on: TK-10
[30] = tested on: UACC-257
[31] = tested on: UACC-62
[32] = tested on: UO-31
[33] = tested on: CAKI-1
[34] = tested on: CCRF-CEM
[35] = tested on: HCC 2998
[36] = tested on: HL-60
[37] = tested on: HOP-92
[38] = tested on: HT-29
[39] = tested on: Hs-578T
[40] = tested on: IGROV-1
[41] = tested on: K562
[42] = tested on: KM12
[43] = tested on: MDA-MB-231
[44] = tested on: MDA-MB-435
[45] = tested on: MDA-N
[46] = tested on: MOLT-4
[47] = tested on: Malme-3M
[48] = tested on: OVCAR-3
[49] = tested on: OVCAR-4
[50] = tested on: RPMI-8226
[51] = tested on: SF-268
[52] = tested on: SF-539
[53] = tested on: SK-MEL-28
[54] = tested on: SK-MEL-2
[55] = tested on: SN12C
[56] = tested on: SR
[57] = tested on: SW-620
[58] = tested on: T47D
[59] = tested on: U-251

## CCN1C/C(=C\c2ccc(Cl)cc2)C2=NN(c3ccccc3)C(c3ccc(Cl)cc3)C2C1 (stereo unspecified)
[1]
  GI50: > 100 µM (inactive)
[2]
  GI50: > 100 µM (inactive)
[3]
  GI50: > 100 µM (inactive)
[4]
  GI50: > 100 µM (inactive)
[5]
  GI50: > 100 µM (inactive)
[6]
  GI50: > 100 µM (inactive)
[7]
  GI50: > 100 µM (inactive)
[8]
  GI50: > 100 µM (inactive)
[9]
  GI50: > 100 µM (inactive)
[10]
  GI50: > 100 µM
[11]
  GI50: > 100 µM (inactive)
[12]
  GI50: > 100 µM (inactive)
[13]
  GI50: > 100 µM (inactive)
[14]
  GI50: 53.1 µM (inactive)
[15]
  GI50: > 100 µM (inactive)
[16]
  GI50: > 100 µM (inactive)
[17]
  GI50: > 100 µM (inactive)
[18]
  GI50: > 100 µM (inactive)
[19]
  GI50: > 100 µM (inactive)
[20]
  GI50: > 100 µM (inactive)
[21]
  GI50: > 100 µM (inactive)
[22]
  GI50: > 100 µM (inactive)
[23]
  GI50: > 100 µM (inactive)
[24]
  GI50: > 100 µM (inactive)
[25]
  GI50: > 100 µM (inactive)
[26]
  GI50: > 100 µM (inactive)
[27]
  GI50: > 100 µM (inactive)
[28]
  GI50: > 100 µM (inactive)
[29]
  GI50: > 100 µM (inactive)
[30]
  GI50: > 100 µM (inactive)
[31]
  GI50: > 100 µM (inactive)
[32]
  GI50: > 100 µM (inactive)

## COc1cc(CNC(=O)CCCCCCCC/C=C/Br)ccc1O
[1]
  GI50: > 10 µM (inactive)
[2]
  GI50: > 10 µM (inactive)
[3]
  GI50: > 10 µM (inactive)
[4]
  GI50: > 10 µM (inactive)
[33]
  GI50: > 10 µM (inactive)
[34]
  GI50: > 10 µM (inactive)
[6]
  GI50: > 10 µM (inactive)
[7]
  GI50: > 10 µM (inactive)
[8]
  GI50: > 10 µM (inactive)
[35]
  GI50: > 10 µM (inactive)
[9]
  GI50: > 10 µM (inactive)
[10]
  GI50: > 10 µM
[36]
  GI50: > 10 µM (inactive)
[11]
  GI50: > 10 µM (inactive)
[37]
  GI50: > 10 µM (inactive)
[38]
  GI50: > 10 µM (inactive)
[39]
  GI50: > 10 µM (inactive)
[40]
  GI50: > 10 µM (inactive)
[41]
  GI50: > 10 µM (inactive)
[42]
  GI50: > 10 µM (inactive)
[12]
  GI50: > 10 µM (inactive)
[13]
  GI50: > 10 µM (inactive)
[14]
  GI50: > 10 µM (inactive)
[43]
  GI50: > 10 µM (inactive)
[44]
  GI50: > 10 µM (inactive)
[45]
  GI50: > 10 µM (inactive)
[46]
  GI50: > 10 µM (inactive)
[47]
  GI50: > 10 µM (inactive)
[15]
  GI50: > 10 µM (inactive)
[16]
  GI50: > 10 µM (inactive)
[17]
  GI50: > 10 µM (inactive)
[18]
  GI50: > 10 µM (inactive)
[19]
  GI50: > 10 µM (inactive)
[48]
  GI50: > 10 µM (inactive)
[49]
  GI50: > 10 µM (inactive)
[21]
  GI50: > 10 µM (inactive)
[22]
  GI50: > 10 µM (inactive)
[50]
  GI50: > 10 µM (inactive)
[23]
  GI50: > 10 µM (inactive)
[51]
  GI50: > 10 µM (inactive)
[24]
  GI50: > 10 µM (inactive)
[52]
  GI50: > 10 µM (inactive)
[53]
  GI50: > 10 µM (inactive)
[54]
  GI50: > 10 µM (inactive)
[25]
  GI50: > 10 µM (inactive)
[26]
  GI50: > 10 µM (inactive)
[55]
  GI50: > 10 µM (inactive)
[27]
  GI50: > 10 µM (inactive)
[28]
  GI50: > 10 µM (inactive)
[56]
  GI50: > 10 µM (inactive)
[57]
  GI50: > 10 µM (inactive)
[58]
  GI50: > 10 µM (inactive)
[29]
  GI50: > 10 µM (inactive)
[59]
  GI50: > 10 µM (inactive)
[30]
  GI50: > 10 µM (inactive)
[31]
  GI50: > 10 µM (inactive)
[32]
  GI50: > 10 µM (inactive)

## C=CCn1c(-c2ccccc2)cs/c1=N\C(P(=O)(O)O)P(=O)(O)O
[1]
  GI50: > 100 µM (inactive)
[3]
  GI50: > 100 µM (inactive)
[4]
  GI50: > 100 µM (inactive)
[5]
  GI50: > 100 µM (inactive)
[33]
  GI50: > 100 µM (inactive)
[6]
  GI50: > 100 µM (inactive)
[7]
  GI50: > 100 µM (inactive)
[8]
  GI50: > 100 µM (inactive)
[35]
  GI50: > 100 µM (inactive)
[9]
  GI50: > 100 µM (inactive)
[10]
  GI50: > 100 µM
[11]
  GI50: > 100 µM (inactive)
[40]
  GI50: > 100 µM (inactive)
[42]
  GI50: > 100 µM (inactive)
[12]
  GI50: > 100 µM (inactive)
[13]
  GI50: > 100 µM (inactive)
[14]
  GI50: > 100 µM (inactive)
[43]
  GI50: > 100 µM (inactive)
[45]
  GI50: > 100 µM (inactive)
[47]
  GI50: > 100 µM (inactive)
[15]
  GI50: > 100 µM (inactive)
[16]
  GI50: > 100 µM (inactive)
[17]
  GI50: > 100 µM (inactive)
[18]
  GI50: > 100 µM (inactive)
[19]
  GI50: > 100 µM (inactive)
[48]
  GI50: > 100 µM (inactive)
[20]
  GI50: > 100 µM (inactive)
[22]
  GI50: > 100 µM (inactive)
[23]
  GI50: > 100 µM (inactive)
[51]
  GI50: > 100 µM (inactive)
[24]
  GI50: > 100 µM (inactive)
[52]
  GI50: > 100 µM (inactive)
[25]
  GI50: > 100 µM (inactive)
[26]
  GI50: > 100 µM (inactive)
[27]
  GI50: > 100 µM (inactive)
[29]
  GI50: > 100 µM (inactive)
[30]
  GI50: > 100 µM (inactive)
[31]
  GI50: > 100 µM (inactive)
[32]
  GI50: > 100 µM (inactive)

## C[C@H](CCC(=O)O)[C@H]1CC[C@H]2[C@@H]3[C@@H](O)C[C@@H]4C[C@H](O)CC[C@]4(C)[C@H]3C[C@H](O)[C@]12C
[1]
  GI50: > 100 µM (inactive)
[2]
  GI50: > 100 µM (inactive)
[3]
  GI50: > 100 µM (inactive)
[4]
  GI50: > 100 µM (inactive)
[33]
  GI50: > 100 µM (inactive)
[34]
  GI50: > 100 µM (inactive)
[6]
  GI50: > 100 µM (inactive)
[7]
  GI50: > 100 µM (inactive)
[8]
  GI50: > 100 µM (inactive)
[35]
  GI50: > 100 µM (inactive)
[9]
  GI50: > 100 µM (inactive)
[10]
  GI50: > 100 µM
[36]
  GI50: > 100 µM (inactive)
[11]
  GI50: > 100 µM (inactive)
[37]
  GI50: > 100 µM (inactive)
[38]
  GI50: > 100 µM (inactive)
[39]
  GI50: 16.4 µM (inactive)
[40]
  GI50: > 100 µM (inactive)
[41]
  GI50: > 100 µM (inactive)
[42]
  GI50: > 100 µM (inactive)
[12]
  GI50: > 100 µM (inactive)
[13]
  GI50: > 100 µM (inactive)
[14]
  GI50: > 100 µM (inactive)
[43]
  GI50: > 100 µM (inactive)
[44]
  GI50: > 100 µM (inactive)
[45]
  GI50: > 100 µM (inactive)
[46]
  GI50: > 100 µM (inactive)
[47]
  GI50: > 100 µM (inactive)
[15]
  GI50: > 100 µM (inactive)
[16]
  GI50: > 100 µM (inactive)
[17]
  GI50: > 100 µM (inactive)
[18]
  GI50: > 100 µM (inactive)
[19]
  GI50: > 100 µM (inactive)
[49]
  GI50: > 100 µM (inactive)
[20]
  GI50: > 100 µM (inactive)
[21]
  GI50: > 100 µM (inactive)
[22]
  GI50: > 100 µM (inactive)
[50]
  GI50: > 100 µM (inactive)
[23]
  GI50: > 100 µM (inactive)
[51]
  GI50: > 100 µM (inactive)
[52]
  GI50: > 100 µM (inactive)
[53]
  GI50: > 100 µM (inactive)
[54]
  GI50: > 100 µM (inactive)
[55]
  GI50: > 100 µM (inactive)
[27]
  GI50: > 100 µM (inactive)
[28]
  GI50: > 100 µM (inactive)
[56]
  GI50: > 100 µM (inactive)
[57]
  GI50: > 100 µM (inactive)
[58]
  GI50: > 100 µM (inactive)
[29]
  GI50: > 100 µM (inactive)
[59]
  GI50: > 100 µM (inactive)
[30]
  GI50: > 100 µM (inactive)
[31]
  GI50: > 100 µM (inactive)
